The subject of this experiment is C.albicans cells. The experiment in a line: Effective inhibitory concentrations for C.albicans cells grown in YPD medium. It counts as cell-based, Candida albicans. Particulars: C.albicans cells grown in YPD medium at 30° C.

Structures are written as SMILES. ≈ marks a conversion by molar mass, not a printed value.

`CN[C@@H]1[C@@H](O)[C@@H](O[C@@H]2[C@@H](O)[C@H](O[C@H]3O[C@H]([C@@H](C)O)[C@@H](O)[C@H](O)[C@H]3N)[C@@H](N)C[C@H]2N)OC[C@]1(C)O` [G418]: the “IC50 (effective inhibitory concentration)” value was 11 µg/mL (≈ 22.2 µM) and the “IC90 (effective inhibitory concentration)” value was found to be 39 µg/mL (≈ 78.5 µM).

Source of the values: US6878531B1, “Method for multiple site-directed mutagenesis” (Medical College of Georgia Research Institute, priority 2003, dated 2005).
